Measurements published in ChEMBL document CHEMBL3232931 (J Med Chem, 2014).
Active and inactive are the calls of the source. The rule behind the calls is not given here.

Columns and labels:
[1] = molecular target: T1, Ubiquitin carboxyl-terminal hydrolase 8 (Homo sapiens) (UniProt P40818); assay: Inhibition of human USP8 using Ub-rhodamine 110 as substrate at 31 uM
T1 sequence (whole entry): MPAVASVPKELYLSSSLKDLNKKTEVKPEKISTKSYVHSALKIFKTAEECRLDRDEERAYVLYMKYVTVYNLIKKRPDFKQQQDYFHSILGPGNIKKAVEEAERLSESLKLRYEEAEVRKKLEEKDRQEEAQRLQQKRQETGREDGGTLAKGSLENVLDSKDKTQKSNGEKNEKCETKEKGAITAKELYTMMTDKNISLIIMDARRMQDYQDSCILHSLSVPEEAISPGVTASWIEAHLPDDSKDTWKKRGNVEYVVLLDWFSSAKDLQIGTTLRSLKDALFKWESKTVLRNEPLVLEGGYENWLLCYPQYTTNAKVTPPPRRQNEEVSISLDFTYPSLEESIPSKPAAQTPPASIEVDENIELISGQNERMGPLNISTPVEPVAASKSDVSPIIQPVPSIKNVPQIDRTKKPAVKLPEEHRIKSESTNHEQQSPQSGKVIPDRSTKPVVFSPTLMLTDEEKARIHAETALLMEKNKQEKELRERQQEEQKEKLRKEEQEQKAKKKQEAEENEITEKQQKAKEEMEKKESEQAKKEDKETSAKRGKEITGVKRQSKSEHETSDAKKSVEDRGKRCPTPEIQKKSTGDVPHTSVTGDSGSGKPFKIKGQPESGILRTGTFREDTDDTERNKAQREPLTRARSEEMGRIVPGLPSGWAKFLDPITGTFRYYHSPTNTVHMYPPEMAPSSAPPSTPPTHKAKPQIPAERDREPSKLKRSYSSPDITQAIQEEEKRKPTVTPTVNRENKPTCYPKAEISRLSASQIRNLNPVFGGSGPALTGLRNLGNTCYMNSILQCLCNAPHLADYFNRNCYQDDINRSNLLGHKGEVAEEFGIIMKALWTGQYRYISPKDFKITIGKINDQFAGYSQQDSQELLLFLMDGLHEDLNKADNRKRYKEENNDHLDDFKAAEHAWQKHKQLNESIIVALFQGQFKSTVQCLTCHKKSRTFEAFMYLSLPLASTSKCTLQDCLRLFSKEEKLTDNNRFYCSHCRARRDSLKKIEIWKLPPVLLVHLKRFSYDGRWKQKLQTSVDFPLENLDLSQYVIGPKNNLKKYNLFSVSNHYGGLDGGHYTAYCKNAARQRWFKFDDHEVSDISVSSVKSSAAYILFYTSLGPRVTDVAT

[2] = molecular target: T2, Cathepsin K (Homo sapiens, UniProt P43235); assay: Inhibition of human cathepsin K using fluorogenic peptide as substrate
T2 sequence (P43235 whole entry): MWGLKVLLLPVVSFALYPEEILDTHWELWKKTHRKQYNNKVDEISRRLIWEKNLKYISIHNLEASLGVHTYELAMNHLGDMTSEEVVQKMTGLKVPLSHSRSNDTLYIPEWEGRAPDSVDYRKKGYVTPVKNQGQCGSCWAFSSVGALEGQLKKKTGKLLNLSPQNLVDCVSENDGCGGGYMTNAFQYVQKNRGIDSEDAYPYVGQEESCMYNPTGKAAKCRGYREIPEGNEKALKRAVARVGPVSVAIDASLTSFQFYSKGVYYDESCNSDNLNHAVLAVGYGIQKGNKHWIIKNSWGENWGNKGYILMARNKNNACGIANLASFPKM

[3] = molecular target: T3, Caspase-3 (Homo sapiens) (UniProt P42574); assay: Inhibition of human caspase-3 using fluorogenic peptide as substrate at 31 uM
T3 sequence (whole entry): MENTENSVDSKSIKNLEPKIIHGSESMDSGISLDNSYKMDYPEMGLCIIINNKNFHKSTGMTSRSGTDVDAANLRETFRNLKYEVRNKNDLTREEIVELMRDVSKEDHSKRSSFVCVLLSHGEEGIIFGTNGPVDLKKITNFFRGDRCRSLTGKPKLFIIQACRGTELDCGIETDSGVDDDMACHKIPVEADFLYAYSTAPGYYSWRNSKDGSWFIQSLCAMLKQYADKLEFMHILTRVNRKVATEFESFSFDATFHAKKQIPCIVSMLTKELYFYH

[4] = molecular target: Ubiquitin carboxyl-terminal hydrolase isozyme L1 (Homo sapiens) (UniProt P09936); assay: Inhibition of human UCHL1 at 31 uM
[5] = molecular target: T4, Ubiquitin carboxyl-terminal hydrolase 2 (Homo sapiens, UniProt O75604); assay: Inhibition of human USP2 using Ub-rhodamine 110 as substrate
T4 sequence (O75604 whole entry): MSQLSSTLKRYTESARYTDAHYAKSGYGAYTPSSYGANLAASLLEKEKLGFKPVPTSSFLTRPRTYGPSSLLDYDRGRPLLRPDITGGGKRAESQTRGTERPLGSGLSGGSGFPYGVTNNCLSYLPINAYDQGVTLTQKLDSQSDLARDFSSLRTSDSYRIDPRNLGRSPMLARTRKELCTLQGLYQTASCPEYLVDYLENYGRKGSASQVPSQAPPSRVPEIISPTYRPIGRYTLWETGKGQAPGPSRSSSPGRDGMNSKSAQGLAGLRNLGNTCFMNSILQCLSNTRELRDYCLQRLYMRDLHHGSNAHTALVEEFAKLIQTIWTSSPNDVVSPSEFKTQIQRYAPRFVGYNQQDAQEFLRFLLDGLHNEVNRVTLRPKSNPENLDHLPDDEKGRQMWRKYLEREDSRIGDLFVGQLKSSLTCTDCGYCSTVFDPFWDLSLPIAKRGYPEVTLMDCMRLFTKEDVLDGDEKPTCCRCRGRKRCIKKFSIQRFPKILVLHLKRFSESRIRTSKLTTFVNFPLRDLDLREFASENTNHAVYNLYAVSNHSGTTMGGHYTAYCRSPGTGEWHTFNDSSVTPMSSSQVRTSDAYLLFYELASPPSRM

[6] = molecular target: Replicase polyprotein 1a (Human coronavirus NL63) (UniProt P0C6U6); assay: Inhibition of human coronavirus NL63 PLP2 (amino acids 1565 to 1894) expressed in Escherichia coli BL21 (DE3) cells assessed as reduction of AMC release using Z-RLRGG-AMC as substrate at 100 uM by multimode plate reader analysis
[7] = molecular target: Ubiquitin carboxyl-terminal hydrolase 20 (Homo sapiens, UniProt Q9Y2K6); assay: Inhibition of human USP20 using Ub-rhodamine 110 as substrate at 31 uM
[8] = molecular target: T5, Ubiquitin carboxyl-terminal hydrolase 8 (Homo sapiens, UniProt P40818); assay: Inhibition of human USP8 using Ub-rhodamine 110 as substrate
T5 sequence (P40818 whole entry): T1 sequence (whole entry)

[9] = system: BL21-DE3; assay: Inhibition of SARS coronavirus papain-like protease (amino acids 1541 to 1855) expressed in Escherichia coli BL21 (DE3) cells assessed as decrease in AMC release using Z-RLRGG-AMC as substrate by serum shift assay based multimode plate reader analysis in presence of 5 to 20% human serum albumin; details: Severe acute respiratory syndrome-related coronavirus

Replicase polyprotein 1a (Human coronavirus NL63), sequence (P0C6U6 whole entry, the tested form may be a part): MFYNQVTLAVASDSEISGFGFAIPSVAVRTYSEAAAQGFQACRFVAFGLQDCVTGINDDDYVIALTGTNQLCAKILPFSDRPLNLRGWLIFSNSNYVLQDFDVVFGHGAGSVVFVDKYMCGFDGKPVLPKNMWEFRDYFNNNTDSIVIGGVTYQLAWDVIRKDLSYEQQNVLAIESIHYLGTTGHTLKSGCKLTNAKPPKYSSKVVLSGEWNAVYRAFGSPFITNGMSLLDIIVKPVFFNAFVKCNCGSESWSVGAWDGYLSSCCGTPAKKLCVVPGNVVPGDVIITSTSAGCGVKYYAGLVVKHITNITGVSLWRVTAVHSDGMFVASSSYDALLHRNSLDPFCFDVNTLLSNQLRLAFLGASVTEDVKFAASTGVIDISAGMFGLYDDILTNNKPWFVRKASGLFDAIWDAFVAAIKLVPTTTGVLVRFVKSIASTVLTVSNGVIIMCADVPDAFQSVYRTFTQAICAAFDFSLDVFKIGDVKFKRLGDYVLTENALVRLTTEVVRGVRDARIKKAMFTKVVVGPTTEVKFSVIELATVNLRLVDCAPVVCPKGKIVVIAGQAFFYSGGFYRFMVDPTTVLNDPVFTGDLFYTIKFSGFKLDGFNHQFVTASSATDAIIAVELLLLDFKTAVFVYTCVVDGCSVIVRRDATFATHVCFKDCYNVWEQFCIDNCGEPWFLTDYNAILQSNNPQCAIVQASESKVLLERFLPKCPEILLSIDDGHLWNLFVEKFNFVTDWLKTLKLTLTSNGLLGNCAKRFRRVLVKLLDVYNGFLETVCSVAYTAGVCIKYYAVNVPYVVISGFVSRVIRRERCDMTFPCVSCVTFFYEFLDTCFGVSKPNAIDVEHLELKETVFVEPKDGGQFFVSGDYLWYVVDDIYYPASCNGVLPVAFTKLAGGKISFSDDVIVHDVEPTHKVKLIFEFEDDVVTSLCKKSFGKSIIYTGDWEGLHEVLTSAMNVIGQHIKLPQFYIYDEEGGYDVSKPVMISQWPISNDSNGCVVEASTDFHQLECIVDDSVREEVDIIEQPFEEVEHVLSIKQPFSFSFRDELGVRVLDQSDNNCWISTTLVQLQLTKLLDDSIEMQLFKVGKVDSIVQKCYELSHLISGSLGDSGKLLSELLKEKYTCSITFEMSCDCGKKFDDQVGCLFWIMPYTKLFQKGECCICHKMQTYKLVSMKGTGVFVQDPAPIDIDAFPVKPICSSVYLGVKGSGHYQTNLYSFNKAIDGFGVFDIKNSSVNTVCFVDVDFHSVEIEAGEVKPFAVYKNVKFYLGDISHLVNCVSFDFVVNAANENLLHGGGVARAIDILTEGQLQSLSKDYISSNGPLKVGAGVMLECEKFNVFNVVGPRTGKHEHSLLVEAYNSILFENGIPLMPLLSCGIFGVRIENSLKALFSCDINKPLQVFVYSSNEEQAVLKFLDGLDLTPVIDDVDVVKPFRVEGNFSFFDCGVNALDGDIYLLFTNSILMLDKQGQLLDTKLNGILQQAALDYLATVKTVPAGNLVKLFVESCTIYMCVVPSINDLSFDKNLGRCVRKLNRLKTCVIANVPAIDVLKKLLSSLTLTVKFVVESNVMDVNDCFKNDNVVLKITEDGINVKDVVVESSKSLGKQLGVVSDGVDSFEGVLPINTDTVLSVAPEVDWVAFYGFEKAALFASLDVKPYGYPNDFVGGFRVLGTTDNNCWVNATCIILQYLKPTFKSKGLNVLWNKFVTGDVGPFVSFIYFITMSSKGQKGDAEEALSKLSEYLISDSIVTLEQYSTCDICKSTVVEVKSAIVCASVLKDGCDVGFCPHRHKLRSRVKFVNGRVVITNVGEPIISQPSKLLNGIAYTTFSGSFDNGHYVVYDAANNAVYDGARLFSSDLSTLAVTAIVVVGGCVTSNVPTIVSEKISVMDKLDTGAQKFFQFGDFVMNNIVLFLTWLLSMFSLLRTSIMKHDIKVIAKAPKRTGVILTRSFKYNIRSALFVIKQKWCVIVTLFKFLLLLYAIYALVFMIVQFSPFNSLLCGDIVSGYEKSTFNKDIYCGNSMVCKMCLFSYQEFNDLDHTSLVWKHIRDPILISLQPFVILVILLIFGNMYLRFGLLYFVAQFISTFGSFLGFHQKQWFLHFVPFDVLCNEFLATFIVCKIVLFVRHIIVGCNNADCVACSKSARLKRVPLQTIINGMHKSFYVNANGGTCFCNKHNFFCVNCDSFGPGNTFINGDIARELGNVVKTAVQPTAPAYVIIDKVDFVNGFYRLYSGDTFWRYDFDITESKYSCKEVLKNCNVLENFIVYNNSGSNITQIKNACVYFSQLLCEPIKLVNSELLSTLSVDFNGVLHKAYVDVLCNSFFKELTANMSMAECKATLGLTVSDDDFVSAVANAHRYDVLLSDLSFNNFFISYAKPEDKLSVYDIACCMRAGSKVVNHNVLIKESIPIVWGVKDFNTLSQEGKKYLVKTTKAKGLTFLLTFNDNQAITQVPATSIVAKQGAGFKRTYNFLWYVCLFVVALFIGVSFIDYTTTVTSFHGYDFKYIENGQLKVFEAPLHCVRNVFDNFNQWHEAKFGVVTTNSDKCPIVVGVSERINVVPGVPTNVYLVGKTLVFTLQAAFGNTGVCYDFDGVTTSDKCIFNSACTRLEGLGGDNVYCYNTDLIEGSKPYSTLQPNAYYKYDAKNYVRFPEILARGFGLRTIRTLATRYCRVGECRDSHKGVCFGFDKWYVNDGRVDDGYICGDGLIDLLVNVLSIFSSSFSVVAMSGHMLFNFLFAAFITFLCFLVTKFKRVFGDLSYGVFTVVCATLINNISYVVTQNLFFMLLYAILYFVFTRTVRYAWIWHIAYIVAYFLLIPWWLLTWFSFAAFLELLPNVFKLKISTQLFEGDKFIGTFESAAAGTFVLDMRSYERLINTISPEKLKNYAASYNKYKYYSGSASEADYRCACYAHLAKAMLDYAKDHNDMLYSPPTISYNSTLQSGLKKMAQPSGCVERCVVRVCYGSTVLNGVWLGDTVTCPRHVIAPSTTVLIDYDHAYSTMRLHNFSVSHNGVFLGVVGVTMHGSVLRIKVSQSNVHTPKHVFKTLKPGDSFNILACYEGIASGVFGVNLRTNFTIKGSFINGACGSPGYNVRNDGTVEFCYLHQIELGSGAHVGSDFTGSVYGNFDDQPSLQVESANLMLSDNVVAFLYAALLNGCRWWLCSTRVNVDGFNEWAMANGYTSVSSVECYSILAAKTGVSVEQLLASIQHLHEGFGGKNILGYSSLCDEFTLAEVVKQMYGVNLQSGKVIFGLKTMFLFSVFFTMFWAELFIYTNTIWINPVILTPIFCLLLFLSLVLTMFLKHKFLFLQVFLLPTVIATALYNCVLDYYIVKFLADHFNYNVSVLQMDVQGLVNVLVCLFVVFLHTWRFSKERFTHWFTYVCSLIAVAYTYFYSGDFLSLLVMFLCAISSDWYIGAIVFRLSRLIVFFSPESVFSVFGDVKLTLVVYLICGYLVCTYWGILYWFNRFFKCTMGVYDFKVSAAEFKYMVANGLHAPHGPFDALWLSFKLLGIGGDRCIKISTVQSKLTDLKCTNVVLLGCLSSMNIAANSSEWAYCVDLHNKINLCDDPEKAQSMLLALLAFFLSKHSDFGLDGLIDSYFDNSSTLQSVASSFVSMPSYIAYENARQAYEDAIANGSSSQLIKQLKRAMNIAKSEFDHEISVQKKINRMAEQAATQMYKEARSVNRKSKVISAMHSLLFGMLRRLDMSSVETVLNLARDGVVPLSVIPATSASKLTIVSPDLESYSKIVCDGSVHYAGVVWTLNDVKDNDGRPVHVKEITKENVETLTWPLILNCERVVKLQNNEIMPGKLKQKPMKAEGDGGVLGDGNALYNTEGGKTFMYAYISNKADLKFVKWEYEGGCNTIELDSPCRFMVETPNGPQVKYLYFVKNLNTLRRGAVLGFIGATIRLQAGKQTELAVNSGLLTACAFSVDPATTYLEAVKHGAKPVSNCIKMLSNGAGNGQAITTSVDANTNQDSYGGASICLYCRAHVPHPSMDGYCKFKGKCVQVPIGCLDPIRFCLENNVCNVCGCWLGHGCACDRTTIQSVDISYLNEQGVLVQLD
Ubiquitin carboxyl-terminal hydrolase 20, sequence (Q9Y2K6 whole entry): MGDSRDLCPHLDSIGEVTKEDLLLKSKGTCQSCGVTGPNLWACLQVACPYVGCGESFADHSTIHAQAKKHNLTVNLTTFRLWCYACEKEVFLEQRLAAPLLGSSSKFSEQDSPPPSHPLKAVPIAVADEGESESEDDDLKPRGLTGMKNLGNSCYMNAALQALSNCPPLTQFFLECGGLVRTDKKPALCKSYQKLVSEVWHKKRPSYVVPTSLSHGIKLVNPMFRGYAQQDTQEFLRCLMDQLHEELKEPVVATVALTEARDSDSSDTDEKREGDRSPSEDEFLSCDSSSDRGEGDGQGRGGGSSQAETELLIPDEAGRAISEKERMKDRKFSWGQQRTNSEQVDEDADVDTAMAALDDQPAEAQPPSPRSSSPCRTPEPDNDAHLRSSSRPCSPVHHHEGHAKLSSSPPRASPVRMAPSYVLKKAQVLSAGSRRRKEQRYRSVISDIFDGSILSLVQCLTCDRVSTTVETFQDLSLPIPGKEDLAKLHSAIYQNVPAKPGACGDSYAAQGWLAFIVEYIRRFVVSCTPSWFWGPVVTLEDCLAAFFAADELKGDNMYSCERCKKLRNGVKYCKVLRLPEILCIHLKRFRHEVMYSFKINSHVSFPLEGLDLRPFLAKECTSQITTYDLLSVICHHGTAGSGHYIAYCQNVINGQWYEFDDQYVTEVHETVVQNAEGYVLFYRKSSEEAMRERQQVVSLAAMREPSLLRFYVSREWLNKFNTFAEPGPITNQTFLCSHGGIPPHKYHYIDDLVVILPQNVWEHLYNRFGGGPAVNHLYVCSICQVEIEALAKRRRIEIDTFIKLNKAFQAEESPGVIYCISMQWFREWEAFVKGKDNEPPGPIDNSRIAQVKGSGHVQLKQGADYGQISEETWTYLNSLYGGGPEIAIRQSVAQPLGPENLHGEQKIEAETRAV

SMILES: CC(=O)Nc1cccc(CNC(=O)C2CCN([C@H](C)c3cccc4ccccc34)CC2)c1
- inhibition [1]: 10%
- IC50 [2]: Not Active
- inhibition [3]: < 10%
- inhibition [4]: < 10%
- IC50 ([5]; read-out: IC50): > 100 µM
- inhibition [6]: > 30%
- inhibition [7]: 10%
- IC50 [8]: > 100 µM
- inhibition [9]: Active

SMILES: C[C@H](c1cccc2ccccc12)N1CCC(C(=O)NCc2cccc(F)c2)CC1
- inhibition [1]: 10%
- IC50 [2]: Not Active
- inhibition [3]: < 10%
- inhibition [4]: < 10%
- IC50 [5]: Not Active
- inhibition [6]: > 30%
- inhibition [7]: 10%
- IC50 [8]: > 100 µM
- inhibition [9]: Active

SMILES: C[C@H](c1cccc2ccccc12)N1CCC(C(=O)NCc2ccc(F)cc2)CC1
- inhibition [1]: 10%
- IC50 [2]: Not Active
- inhibition [3]: < 10%
- inhibition [4]: < 10%
- IC50 [5]: Not Active
- inhibition [7]: 10%
- IC50 [8]: > 100 µM
- inhibition [9]: Active

SMILES: C[C@H](c1cccc2ccccc12)N1CCC(C(=O)NCc2ccc3c(c2)OCO3)CC1
- inhibition [1]: 10%
- IC50 [2]: Not Active
- inhibition [3]: < 10%
- inhibition [4]: < 10%
- IC50 [5]: Not Active
- inhibition [6]: > 30%
- inhibition [7]: < 10%
- IC50 [8]: > 100 µM
- inhibition [9]: Active
